The results in this text go back to ChEMBL document CHEMBL1135389, “7-Substituted 5-amino-2-(2-furyl)pyrazolo[4,3-e]-1,2,4-triazolo[1,5-c]pyrimidines as A2A adenosine receptor antagonists: a study on the importance of modifications at the side chain on the activity and solubility” (J Med Chem, 2002).

Assay [1] concerns the target T1, Adenosine receptor A2b (Homo sapiens, UniProt P29275).
T1 sequence (P29275 whole entry): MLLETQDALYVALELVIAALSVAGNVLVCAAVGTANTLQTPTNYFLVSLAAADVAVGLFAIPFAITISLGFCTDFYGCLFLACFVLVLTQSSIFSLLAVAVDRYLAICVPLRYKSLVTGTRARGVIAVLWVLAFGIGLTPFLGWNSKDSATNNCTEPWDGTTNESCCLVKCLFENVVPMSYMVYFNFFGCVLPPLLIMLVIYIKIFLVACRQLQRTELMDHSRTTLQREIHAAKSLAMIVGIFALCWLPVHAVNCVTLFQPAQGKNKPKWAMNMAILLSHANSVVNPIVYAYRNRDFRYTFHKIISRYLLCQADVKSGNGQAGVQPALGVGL
Description: biochemical.
Description: (§1) Displacement of specific [3H]DPCPX binding at human adenosine A2B receptor expressed in HEK293 cells.

Assay [2] addresses T2, Adenosine receptor A2a (Homo sapiens, UniProt P29274). Description: biochemical.
Assay [3] deals with T3, Adenosine receptor A1 (Homo sapiens, UniProt P30542).
T3 sequence (P30542 whole entry): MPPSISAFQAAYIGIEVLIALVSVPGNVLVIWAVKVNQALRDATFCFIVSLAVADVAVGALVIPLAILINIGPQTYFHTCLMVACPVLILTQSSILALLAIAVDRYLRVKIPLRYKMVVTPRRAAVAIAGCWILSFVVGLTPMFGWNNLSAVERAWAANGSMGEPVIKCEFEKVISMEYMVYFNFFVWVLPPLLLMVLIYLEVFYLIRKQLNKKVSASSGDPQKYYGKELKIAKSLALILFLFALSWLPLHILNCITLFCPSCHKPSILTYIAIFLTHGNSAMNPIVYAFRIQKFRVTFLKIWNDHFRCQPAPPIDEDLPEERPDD
The assay can be described thus: biochemical.
Description: Displacement of specific [3H]DPCPX binding at human Adenosine A1 receptor expressed in CHO cells.

For a further assay, the target named is T4, Adenosine receptor A3 (Homo sapiens, UniProt P0DMS8).
T4 sequence (P0DMS8 whole entry): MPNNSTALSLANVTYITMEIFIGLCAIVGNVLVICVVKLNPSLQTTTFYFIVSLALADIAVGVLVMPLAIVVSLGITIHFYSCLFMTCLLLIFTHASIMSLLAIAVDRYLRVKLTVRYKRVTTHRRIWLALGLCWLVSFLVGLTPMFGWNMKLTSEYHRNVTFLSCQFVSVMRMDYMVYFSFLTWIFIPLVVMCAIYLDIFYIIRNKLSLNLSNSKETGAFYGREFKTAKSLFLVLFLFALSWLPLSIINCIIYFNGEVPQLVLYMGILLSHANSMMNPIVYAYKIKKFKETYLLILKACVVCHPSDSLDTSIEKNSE
The assay can be described thus: Displacement of specific [3H]MRE3008-F20 binding at human adenosine A3 receptor expressed in CHO cells. Type of assay: cell-based.

Assay [4] addresses T2, Adenosine receptor A2a. Description: Displacement of [3H]-SCH- 58261 binding at human Adenosine A2A receptor expressed in HEK293 cells; ranges from 66-85. Type of assay: cell-based.
Assay [5] concerns the target T3, Adenosine receptor A1. The assay can be described thus: Displacement of [3H]DPCPX binding at human Adenosine A1 receptor expressed in CHO cells; ranges from 5697-7171. Type of assay: cell-based. For orientation: In a radioligand displacement assay an active substance lowers the binding of a labelled ligand.
Assay [6] has as its target T2, Adenosine receptor A2a. Description: Displacement of [3H]-SCH- 58261 binding at human Adenosine A2A receptor expressed in HEK293 cells; ranges from 129-152. It is filed as cell-based.
Assay [7] addresses T3, Adenosine receptor A1. The assay can be described thus: Displacement of [3H]-DPCPX from human Adenosine A1 receptor expressed in CHO cells; ranges from 107-181. Type of assay: cell-based.
Assay [8] concerns the target T1, Adenosine receptor A2b. Conditions: hek293.
Description: as §1
The target of assay [9] is T3, Adenosine receptor A1. Description: Displacement of [3H]DPCPX from human Adenosine A1 receptor expressed in CHO cells; ranges from 9038-9773. It is filed as cell-based.
Assay [10] concerns the target T2, Adenosine receptor A2a. Description: Displacement of [3H]-SCH- 58261 binding at human Adenosine A2A receptor expressed in HEK293 cells; ranges from 98-144. It is filed as cell-based.
Assay [11] has as its target T2, Adenosine receptor A2a. Description: Displacement of [3H]-SCH- 58261 binding at human Adenosine A2A receptor expressed in HEK293 cells; ranges from 0.69-0.92. Type of assay: cell-based.
The target in assay [12] is T3, Adenosine receptor A1. Description: Displacement of [3H]-DPCPX from human Adenosine A1 receptor expressed in CHO cells; ranges from 2153-2891. It is filed as cell-based.

Bounds are passed on as bounds.

T2 sequence (P29274 whole entry): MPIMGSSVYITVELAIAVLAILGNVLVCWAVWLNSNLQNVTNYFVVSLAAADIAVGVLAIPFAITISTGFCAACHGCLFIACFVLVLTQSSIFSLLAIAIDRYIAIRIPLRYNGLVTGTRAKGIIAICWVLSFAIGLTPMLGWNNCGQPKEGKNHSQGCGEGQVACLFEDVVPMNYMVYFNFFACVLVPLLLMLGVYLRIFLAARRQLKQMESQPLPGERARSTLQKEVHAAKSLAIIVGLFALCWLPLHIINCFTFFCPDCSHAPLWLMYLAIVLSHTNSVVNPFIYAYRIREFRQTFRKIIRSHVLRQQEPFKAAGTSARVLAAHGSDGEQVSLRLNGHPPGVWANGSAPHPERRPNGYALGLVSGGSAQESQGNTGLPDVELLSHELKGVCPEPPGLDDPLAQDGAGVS

On to `NCc1ccc(CCCn2ncc3c2nc(N)n2nc(-c4ccco4)nc32)cc1`, for which the Ki was above 10 µM at Adenosine receptor A2b [1], 0.006 µM at Adenosine receptor A2a [2], 0.06 µM on Adenosine receptor A1 [3] and above 10 µM on Adenosine receptor A3.
For the compound `Nc1ccc(CCCn2ncc3c2nc(N)n2nc(-c4ccco4)nc32)cc1`, the inhibitory constant (Ki) on Adenosine receptor A2b [1] is above 10 µM; at Adenosine receptor A2a [2], 0.00022 µM; at Adenosine receptor A1 [3], 2.16 µM; on Adenosine receptor A3 it was above 10 µM.
Regarding `CC(=O)Nc1ccc(CCn2ncc3c2nc(N)n2nc(-c4ccco4)nc32)cc1`, the Ki was above 10 µM at Adenosine receptor A2b [1], 0.0048 µM at Adenosine receptor A2a [2], 0.419 µM at Adenosine receptor A1 [3] and above 10 µM on Adenosine receptor A3.
Regarding `Nc1nc2c(cnn2CCc2ccc(S(=O)(=O)O)cc2)c2nc(-c3ccco3)nn12`, the Ki at Adenosine receptor A2b [1] was above 10 µM; on Adenosine receptor A2a [2] it was 0.1 µM; at Adenosine receptor A1 [3], 0.19 µM; at Adenosine receptor A3, above 10 µM.
With `CCOC(=O)COc1ccc(CCn2ncc3c2nc(N)n2nc(-c4ccco4)nc32)cc1`, the inhibitory constant (Ki) is above 10 µM on Adenosine receptor A2b [1], 0.00043 µM at Adenosine receptor A2a [2], 4.2 µM on Adenosine receptor A1 [3] and above 10 µM at Adenosine receptor A3.
Consider `Nc1nc2c(cnn2CCCc2cc3c(cc2S(=O)(=O)O)OCO3)c2nc(-c3ccco3)nn12`, for which the inhibitory constant (Ki) on Adenosine receptor A2b [1] is above 10 µM; at Adenosine receptor A2a [4], 0.075 µM; on Adenosine receptor A1 [5] it was 6.39 µM; at Adenosine receptor A3 it was above 10 µM.
As for `N=C(N)c1ccc(CCCn2ncc3c2nc(N)n2nc(-c4ccco4)nc32)cc1`, the Ki at Adenosine receptor A2b [1] is above 10 µM; on Adenosine receptor A2a [2] it was 0.055 µM; at Adenosine receptor A1 [3] it was 0.075 µM; on Adenosine receptor A3, above 10 µM.
Regarding `Nc1ccc(CCn2ncc3c2nc(N)n2nc(-c4ccco4)nc32)cc1`, the Ki on Adenosine receptor A2b [1] was above 10 µM; at Adenosine receptor A2a [2] it was 0.00013 µM; on Adenosine receptor A1 [3], 0.576 µM; at Adenosine receptor A3 it was above 10 µM.
Regarding `Nc1nc2c(cnn2CCc2ccc(S(N)(=O)=O)cc2)c2nc(-c3ccco3)nn12`, the Ki is above 10 µM at Adenosine receptor A2b [1], 0.00131 µM at Adenosine receptor A2a [2], 2.63 µM on Adenosine receptor A1 [3] and above 10 µM at Adenosine receptor A3.
As to `N/C(=N\O)c1ccc(CCn2ncc3c2nc(N)n2nc(-c4ccco4)nc32)cc1`, the Ki at Adenosine receptor A2b [1] is above 10 µM; on Adenosine receptor A2a [2], 0.00018 µM; on Adenosine receptor A1 [3], 0.179 µM; at Adenosine receptor A3, above 10 µM.
Take `Nc1nc2c(cnn2CCCc2ccc(S(=O)(=O)O)cc2)c2nc(-c3ccco3)nn12`: the Ki on Adenosine receptor A2a [6] was 0.14 µM; on Adenosine receptor A2b [1], above 10 µM; at Adenosine receptor A1 [7], 0.139 µM; at Adenosine receptor A3, above 10 µM.
For `Nc1nc2c(cnn2CCCc2ccc3c(c2)OC(C(=O)O)(C(=O)O)O3)c2nc(-c3ccco3)nn12`, the Ki at Adenosine receptor A2b [8] is above 10 µM; at Adenosine receptor A1 [9], 9.4 µM; on Adenosine receptor A3 (cho), above 10 µM; at Adenosine receptor A2a [10], 0.12 µM.
Turning to `Nc1nc2c(cnn2CCc2ccc(S(=O)(=O)N(CCO)CCO)cc2)c2nc(-c3ccco3)nn12`, the inhibitory constant (Ki) at Adenosine receptor A2a [11] is 0.0008 µM; at Adenosine receptor A1 [12], 2.5 µM; on Adenosine receptor A2b [1] it was above 10 µM; at Adenosine receptor A3, above 10 µM.
Regarding `Nc1nc2c(cnn2CCc2ccc(N(CCO)CCO)cc2)c2nc(-c3ccco3)nn12`, the Ki at Adenosine receptor A2b [1] is above 10 µM; on Adenosine receptor A2a [2], 0.00012 µM; at Adenosine receptor A1 [3] it was 0.123 µM; on Adenosine receptor A3, above 10 µM.

As usually defined, the Ki is the equilibrium dissociation constant of an inhibitor or competing ligand from its target. High values mean lower affinity, low ones higher affinity.
